Assays:
[1] = test system: Quarter-Udders in Pregnant Beef Cows; test: Intramammary infusion of hEGF or mEGF, quarter-udder weights and DNA (Examples 1-2); type: in vivo, cross-bred beef cows; conditions: 25 micrograms per infusion, days 1,3,5,7,9, Freund's emulsion
Experimental: 12 pregnant, non-lactating, cross-bred beef cows within their last 40-80 days of gestation were housed in a free-stall facility, fed a ration of alfalfa hay and pelleted concentrate, and administered 10 ml of an excipient (Freund's Incomplete Adjuvant emulsified with an equal volume of 0.9% sterile saline) into each quarter-udder by intramammary infusion through the streak canal on days 1, 3, 5, 7 and 9 of this study. Infusions were carried out using a 3.2 centimeter long, approximately 12 gauge, blunt-tipped plastic teat infusion cannula obtained from Jorgensen Laboratories, Loveland, Colo. Because front and rear udder halves are not of equal size, treatment vs. control comparisons were made between laterally opposite quarters, i.e., front right vs. front left and rear right vs. rear left. Treatments were randomly assigned to right or left udder-halves, with the contralateral half serving as its control. […] (the other 6 animals).
Prior to treatment, each animal was teatdipped for 3 consecutive days and each teat was pre-cleaned with 70% ethanol in water on the day of treatment. On day 14 the cows were sacrificed and their mammary glands excised. Each udder (milked out if necessary) was skinned, divided along the median suspensory ligament and then into front right, front left, rear right and rear left udder quarters. Each quarter-udder was ground, a representative 200 gm sample was homogenized with 4 times its volume of water, and the total homogenate volume of each was measured.
To determine dry weight of each quarter-udder, three 10 ml aliquots of a 1:5 diluted homogenate were placed in pre-weighed pans, dried overnight at 60° and then dried and weighed to a consistent value.
To determine dry fat-free tissue weight of each quarter-udder, three 5 ml aliquots of the undiluted homogenate were extracted by the method of Anderson, 41 J. Anim. Sci. 118 (1975) except that samples were placed in pre-weighed 25×150 mm glass centrifuge tubes and extracted overnight with 10 ml ethanol:ether (3:1), then centrifuged (5 min at 500 rpm) and the supernatant aspirated; an additional 10 ml aliquot of ethanol:ether was added for a second extraction; and the sample was dried under nitrogen until a consistent value was obtained.
DNA in each quarter-udder was determined by the method of Burton, 12B Methods in Enzymol. 163-66 (1968) using an assay solution of 15% trichloroacetic acid (TCA) in 2N HCl. In these determinations, aliquots of gland homogenate were diluted 1:5 with water and rehomogenized. Using triplicate 0.25 ml or 0.5 ml aliquots of these homogenates, each aliquot was mixed with 2 ml of the assay solution. After 30 min, the samples were centrifuged for 10 min at 3000 rpm and the resulting pellets were washed with 2 ml of a 10% solution of TCA in distilled water. After recentrifugation, the resulting pellets were disrupted in 2 ml of 0.5N perchloric acid and heated for 30 min at 70° to extract DNA. Samples were centrifuged and 1 ml of each resulting supernatant was placed in a 12×75 mm tube. After addition of 2 ml of a solution of 1.5 g diphenylamine and 1.5 ml H2 SO4 in 100 ml glacial acetic acid (and 0.1 ml of 1.6% aqueous acetaldehyde per 20 ml reagent just prior to use), the samples were vortexed and incubated overnight at 27°. Calf thymus DNA was the standard.

[2] = test system: pregnant Holstein heifers; test: Intramammary infusion until parturition, milk production in first 105 days of lactation (Example 13); type: in vivo; conditions: one animal, 250 micrograms hEGF every third day only until 15 days before parturition
Experimental: 48 pregnant Holstein heifers within their last 40 days (approximately) of gestation were housed in a free-stall facility, fed a ration of alfalfa hay and pelleted concentrate, and administered 10 ml of an excipient into each quarter-udder by intramammary infusion through the streak canal every third day until parturition with the exception of one animal which was treated with human EGF as described in this Example only until 15 days before parturition. Infusions were carried out using a 3.2 centimeter long, approximately 12 gauge, blunt-tipped plastic teat infusion cannula obtained from Jorgensen Laboratories, Loveland, Colo. […] In each animal, all 4 quarter-udders received the same treatment. Each udder was sprayed with 70% ethanol and wiped dry prior to treatment and dipped with an iodine solution following treatment. At parturition, 4 animals from each treatment group were sacrificed and their mammary glands were removed for analysis. The other 8 animals from each treatment group were milked normally each a.m. and p.m. for the first 105 days of lactation.

[3] = test system: Quarter-Udders in Pregnant Beef Cows; test: Intramammary infusion of hEGF, quarter-udder weights and DNA (Examples 3-6); type: in vivo, cross-bred beef cows; conditions: for DNA, % Increase, (A-B)/B / DNA, Mean Increase (A-B) / Dry Fat-Free Weight, % Increase, (A-B)/B / Dry Fat-Free Weight, Mean Increase (A-B) / Dry Weight, % Increase, (A-B)/B / Dry Weight, Mean Increase (A-B) / Wet Weight, % Increase, (A-B)/B / Wet Weight, Mean Increase (A-B): B = excipient only
Excerpt: 24 pregnant, non-lactating, cross-bred beef cows within their last 40-80 days of gestation were randomly divided into 4 treatment groups with 6 animals in each group.

[4] = test system: Quarter-Udders in Pregnant Beef Cows; test: Intramammary infusion of hEGF, quarter-udder weights and DNA (Examples 7-8); type: in vivo, cross-bred beef cows
Excerpt: 24 pregnant, non-lactating, cross-bred beef cows within their last 40-80 days of gestation were randomly divided into 3 treatment groups with 8 animals in each group.

[5] = B = opposite quarter, excipient only
[6] = Group 1: total of 125 micrograms hEGF in Freund's emulsion
[7] = Group 2: total of 125 micrograms hEGF in sesame emulsion
[8] = Group 3: total of 12.5 micrograms hEGF in sesame emulsion
[9] = Group 4: total of 1.25 milligrams hEGF in sesame emulsion
[10] = Group 1: total of 125 micrograms hEGF
[11] = Group 1: total of 125 micrograms hEGF, B = excipient only
[12] = Group 2: total of 1.25 milligrams hEGF
[13] = Group 2: total of 1.25 milligrams hEGF, B = excipient only

Substance: hEGF: human EGF from G. D. Searle & Co., prepared by expression of recombinant DNA, purity above 90%
- DNA, Mean Increase (A-B) [1, 5]: 84.5 mg
- Dry Fat-Free Weight, Mean Increase (A-B) [1, 5]: 4.9 g
- Dry Weight, % Increase, (A-B)/B [1, 5]: 7.7%
- Wet Weight, Mean Increase (A-B) [1, 5]: 32.6 g
- DNA, Treatment Mean ([1]; day 14): 794.5 mg
- Dry Fat-Free Weight, Treatment Mean ([1]; day 14): 63.2 g
- Dry Weight, Treatment Mean ([1]; day 14): 120.0 g
- Wet Weight, Treatment Mean ([1]; day 14): 389.9 g
- DNA, Avg % Increase/Animal ([1]; vs excipient-only quarter): 14.8%
- Dry Fat-Free Weight, Avg % Increase/Animal ([1]; vs excipient-only quarter): 16.1%
- Wet Weight, Avg % Increase/Animal ([1]; vs excipient-only quarter): 12.9%
- Average milk production more than average of the 8 control cows [2]: 9.6 kg milk/day
- Average milk production more than average of the 8 control cows, percent [2]: 34.8%
- DNA, Avg % Increase/Animal [3, 6]: 23.0%
- DNA, Treatment Mean [3, 6]: 723.0 mg
- Dry Fat-Free Weight, Avg % Increase/Animal [3, 6]: 8.3%
- Dry Fat-Free Weight, Treatment Mean [3, 6]: 60.3 g
- Dry Weight, Treatment Mean [3, 6]: 107.2 g
- Wet Weight, Treatment Mean [3, 6]: 364.9 g
- DNA, % Increase, (A-B)/B [3, 6]: 14.9%
- DNA, Mean Increase (A-B) [3, 6]: 94.0 mg
- Dry Fat-Free Weight, % Increase, (A-B)/B [3, 6]: 6.2%
- Dry Fat-Free Weight, Mean Increase (A-B) [3, 6]: 3.5 g
- Dry Weight, % Increase, (A-B)/B [3, 6]: 6.1%
- Dry Weight, Mean Increase (A-B) [3, 6]: 6.2 g
- Wet Weight, % Increase, (A-B)/B [3, 6]: 4.4%
- Wet Weight, Mean Increase (A-B) [3, 6]: 15.4 g
- DNA, Avg % Increase/Animal [3, 7]: 70.0%
- DNA, Treatment Mean [3, 7]: 995.0 mg
- Dry Fat-Free Weight, Avg % Increase/Animal [3, 7]: 15.9%
- Dry Fat-Free Weight, Treatment Mean [3, 7]: 71.0 g
- Dry Weight, Avg % Increase/Animal [3, 7]: 20.2%
- Wet Weight, Avg % Increase/Animal [3, 7]: 10.4%
- Wet Weight, Treatment Mean [3, 7]: 370.2 g
- DNA, % Increase, (A-B)/B [3, 7]: 41.5%
- DNA, Mean Increase (A-B) [3, 7]: 292.0 mg
- Dry Fat-Free Weight, % Increase, (A-B)/B [3, 7]: 3.2%
- Dry Fat-Free Weight, Mean Increase (A-B) [3, 7]: 2.2 g
- Dry Weight, % Increase, (A-B)/B [3, 7]: 9.9%
- Dry Weight, Mean Increase (A-B) [3, 7]: 11.0 g
- Wet Weight, % Increase, (A-B)/B [3, 7]: 3.9%
- Wet Weight, Mean Increase (A-B) [3, 7]: 14.0 g
- DNA, Treatment Mean [3, 8]: 867.6 mg
- Dry Fat-Free Weight, Avg % Increase/Animal [3, 8]: 16.3%
- Dry Fat-Free Weight, Treatment Mean [3, 8]: 79.4 g
- Dry Weight, Avg % Increase/Animal [3, 8]: 7.8%
- Dry Weight, Treatment Mean [3, 8]: 132.4 g
- Wet Weight, Avg % Increase/Animal [3, 8]: 0.6%
- Wet Weight, Treatment Mean [3, 8]: 397.8 g
- Dry Fat-Free Weight, Mean Increase (A-B) [3, 8]: 6.7 g
- Dry Weight, % Increase, (A-B)/B [3, 8]: 4.2%
- Dry Weight, Mean Increase (A-B) [3, 8]: 5.4 g
- DNA, Avg % Increase/Animal [3, 9]: 1.6%
- DNA, Treatment Mean [3, 9]: 733.2 mg
- Dry Fat-Free Weight, Treatment Mean [3, 9]: 81.7 g
- Dry Weight, Treatment Mean [3, 9]: 131.5 g
- Wet Weight, Avg % Increase/Animal [3, 9]: 9.9%
- Wet Weight, Treatment Mean [3, 9]: 391.9 g
- DNA, % Increase, (A-B)/B [3, 9]: 0.5%
- DNA, Mean Increase (A-B) [3, 9]: 4.0 mg
- Dry Fat-Free Weight, Mean Increase (A-B) [3, 9]: 6.6 g
- Dry Weight, Mean Increase (A-B) [3, 9]: 13.6 g
- Wet Weight, Mean Increase (A-B) [3, 9]: 31.7 g
- DNA, Treatment Mean [4, 10]: 396.9 mg
- Dry Fat-Free Weight, Treatment Mean [4, 10]: 52.8 g
- Dry Weight, Treatment Mean [4, 10]: 113.0 g
- Wet Weight, Treatment Mean [4, 10]: 363.0 g
- DNA, % Increase, (A-B)/B [4, 11]: 10.6%
- DNA, Mean Increase (A-B) [4, 11]: 38.0 mg
- Dry Fat-Free Weight, % Increase, (A-B)/B [4, 11]: 4.1%
- Dry Fat-Free Weight, Mean Increase (A-B) [4, 11]: 2.1 g
- Dry Weight, % Increase, (A-B)/B [4, 11]: 3.0%
- Dry Weight, Mean Increase (A-B) [4, 11]: 3.3 g
- Wet Weight, % Increase, (A-B)/B [4, 11]: 1.5%
- DNA, Treatment Mean [4, 12]: 344.0 mg
- Dry Fat-Free Weight, Treatment Mean [4, 12]: 63.8 g
- Wet Weight, Treatment Mean [4, 12]: 392.5 g
- Dry Fat-Free Weight, % Increase, (A-B)/B [4, 13]: 3.9%
- Dry Fat-Free Weight, Mean Increase (A-B) [4, 13]: 2.4 g
- Dry Weight, % Increase, (A-B)/B [4, 13]: 5.3%
- Dry Weight, Mean Increase (A-B) [4, 13]: 6.3 g
- Wet Weight, % Increase, (A-B)/B [4, 13]: 1.1%
- Wet Weight, Mean Increase (A-B) [4, 13]: 4.3 g

Source: patent US5130300A, “Method for enhancing growth of mammary parenchyma” (Monsanto Company, priority 1987, dated 1992)
